Assay results taken from ChEMBL document CHEMBL5500331, “Discovery of novel peptide-dehydroepiandrosterone hybrids inducing endoplasmic reticulum stress with effective in vitro and in vivo anti-melanoma activities” (Eur J Med Chem, 2024).
Activity calls are given as the source filed them. The rule behind the calls is not given here.

How the values were obtained:
[1] = system: B16; experiment: Anti-melanoma activity against mouse B16 cells xenografted in Kunming mouse model assessed as reduction in tumor volume at 40 mg/kg, IG measured after 7 to 27 days; type: functional, organism-based; details: time 7-27 day
[2] = system: B16; experiment: Anti-melanoma activity against mouse B16 cells xenografted in Kunming mouse model assessed as increase in caspase 8 expression at 40 to 60 mg/kg, IG measured after 27 days by IHC staining based analysis; type: functional, organism-based; details: dose 40-60 mg/kg, time 27.0 day
[3] = Drug metabolism in mouse plasma assessed as abiraterone Tmax at 20 mg/kg, IG; type: ADME, organism-based; details: in vivo, po
[4] = system: B16; experiment: Induction of endoplasmic reticulum (ER) stress in mouse B16 cells assessed as fragmented distribution at 25 uM measured after 24 hrs by confocal microscopy based analysis; type: functional, cell-based
[5] = system: B16; experiment: Induction of endoplasmic reticulum (ER) stress in mouse B16 cells assessed as increase in […] expression at 9.70 uM measured after 48 hrs by Western blot analysis; type: functional, cell-based; details: dose 9.7 µM
[6] = system: B16; experiment: Anti-melanoma activity against mouse B16 cells xenografted in Kunming mouse model assessed as suppression of tumor weight at 80 mg/kg, IG measured every two days for 27 days (reference value: 10.61+/-1.05g); type: functional; details: time 27 day
[7] = system: B16; experiment: Induction of endoplasmic reticulum (ER) stress in mouse B16 cells assessed as appearance of vacuolated ER at 9.70 uM measured after 24 hrs by confocal microscopy based analysis; type: functional, cell-based; details: dose 9.7 µM
[8] = Drug metabolism in mouse plasma assessed as abiraterone Cmax at 20 mg/kg, IG; type: ADME, organism-based; details: in vivo, po
[9] = system: B16; experiment: Upregulation of […] expression in mouse B16 cells at 9.70 uM measured after 48 hrs by Western blot analysis; type: functional, cell-based; details: dose 9.7 µM
[10] = Toxicity in Kunming mouse assessed as effect on body weight at 40 mg/kg, IG measured after 21 days; type: organism-based; details: in vivo, po, 504 h, time 21 day
[11] = system: B16; experiment: Anti-melanoma activity against mouse B16 cells xenografted in Kunming mouse model assessed as decrease in bcl-2 level at 40 to 60 mg/kg, IG measured after 27 days by IHC staining based analysis; type: functional, organism-based; details: dose 40-60 mg/kg, time 27.0 day
[12] = system: B16; experiment: Induction of endoplasmic reticulum (ER) stress in mouse B16 cells assessed as decrease in alix expression at 9.70 uM measured after 48 hrs by Western blot analysis; type: functional, cell-based; details: dose 9.7 µM
[13] = system: B16; experiment: Upregulation of caspase 3 expression in mouse B16 cells at 9.70 uM measured after 48 hrs by Western blot analysis; type: functional, cell-based; details: dose 9.7 µM
[14] = Toxicity in Kunming mouse assessed as increase in survival rate at 60 mg/kg, IG measured after 27 days relative to control; type: organism-based; details: in vivo, po, time 27 day
[15] = Toxicity in Kunming mouse assessed as increase in survival rate at 80 mg/kg, IG measured after 27 days relative to control; type: organism-based; details: in vivo, po, time 27 day
[16] = system: B16; experiment: Anti-melanoma activity against mouse B16 cells xenografted in Kunming mouse model assessed as inhibition of tumor weight at 80 mg/kg, IG measured every two days for 27 days relative to control; type: functional; set-up: scale not given: the % may be the effect or the level left; details: time 27 day
[17] = system: B16; experiment: Downregulation of Bcl-2 expression in mouse B16 cells at 9.70 uM measured after 48 hrs by Western blot analysis; type: functional, cell-based; details: dose 9.7 µM
[18] = system: B16; experiment: Upregulation of caspase 8 expression in mouse B16 cells at 9.70 uM measured after 48 hrs by Western blot analysis; type: functional, cell-based; details: dose 9.7 µM
[19] = Toxicity in Kunming mouse assessed as effect on body weight at 60 mg/kg, IG measured after 21 days; type: organism-based; details: in vivo, po, 504 h, time 21 day
[20] = Toxicity in Kunming mouse assessed as effect on body weight at 80 mg/kg, IG measured after 21 days; type: organism-based; details: in vivo, po, 504 h, time 21 day
[21] = system: B16; experiment: Antiproliferative activity against mouse B16 cells measured after 48 hrs by MTT assay; type: functional, cell-based; details: B16, 48 h
[22] = system: B16; experiment: Anti-melanoma activity against mouse B16 cells xenografted in Kunming mouse model assessed as inhibition of tumor weight at 60 mg/kg, IG measured every two days for 27 days relative to control; type: functional; set-up: scale not given: the % may be the effect or the level left; details: time 27 day
[23] = Inhibition of cell invasion in mouse B16 cells at 9.70 uM measured after 24 hrs by crystal violet staining based analysis relative to control; type: functional
[24] = system: B16; experiment: Anti-melanoma activity against mouse B16 cells xenografted in Kunming mouse model assessed as increase in bax expression at 40 to 60 mg/kg, IG measured after 27 days by IHC staining based analysis; type: functional, organism-based; details: dose 40-60 mg/kg, time 27.0 day
[25] = system: B16; experiment: Induction of endoplasmic reticulum (ER) stress in mouse B16 cells assessed as appearance of damaged ER at 9.70 uM measured after 24 hrs by confocal microscopy based analysis; type: functional, cell-based; details: dose 9.7 µM
[26] = Antiproliferative activity against human Prostate tumor cell line at 25 uM measured after 48 hrs by MTT assay relative to control; type: functional
[27] = system: B16; experiment: Anti-melanoma activity against mouse B16 cells xenografted in Kunming mouse model assessed as reduction in tumor volume at 60 to 80 mg/kg, IG measured after 7 to 27 days; type: functional, organism-based; details: dose 60-80 mg/kg, time 7-27 day
[28] = system: B16; experiment: Anti-melanoma activity against mouse B16 cells xenografted in Kunming mouse model assessed as reduction in tumor volume at 60 to 80 mg/kg, IG measured after 11 days relative to control; type: functional; set-up: scale not given: the % may be the effect or the level left; details: dose 60-80 mg/kg, time 11 day
[29] = system: B16; experiment: Anti-melanoma activity against mouse B16 cells xenografted in Kunming mouse model assessed as suppression of tumor weight at 60 mg/kg, IG measured every two days for 27 days (reference value: 10.61+/-1.05g); type: functional; details: time 27 day
[30] = system: B16; experiment: Anti-melanoma activity against mouse B16 cells xenografted in Kunming mouse model assessed as reduction in tumor volume at 40 to 80 mg/kg, IG measured after 5 days; type: functional, organism-based; details: dose 40-80 mg/kg, time 5.0 day
[31] = system: B16; experiment: Anti-melanoma activity against mouse B16 cells xenografted in Kunming mouse model assessed as increase in caspase 3 expression at 40 to 60 mg/kg, IG measured after 27 days by IHC staining based analysis; type: functional, organism-based; details: dose 40-60 mg/kg, time 27.0 day
[32] = system: B16; experiment: Anti-melanoma activity against mouse B16 cells xenografted in Kunming mouse model assessed as suppression of tumor weight at 40 mg/kg, IG measured every two days for 27 days (reference value: 10.61+/-1.05g); type: functional; details: time 27 day
[33] = system: B16; experiment: Induction of endoplasmic reticulum (ER) stress in mouse B16 cells assessed as increase in CHOP expression at 9.70 uM measured after 48 hrs by Western blot analysis; type: functional, cell-based; details: dose 9.7 µM
[34] = system: B16; experiment: Induction of apoptosis in mouse B16 cells at 4.85 uM measured after 48 hrs by annexin-V/PI double staining based flow cytometry analysis; type: functional, cell-based
[35] = Inhibition of cell migration in mouse B16 cells at 9.70 uM measured after 48 hrs by scratch-wound healing assay relative to control; type: functional
[36] = Inhibition of cell migration in mouse B16 cells at 9.70 uM measured after 24 hrs by crystal violet staining based analysis relative to control; type: functional
[37] = system: B16; experiment: Anti-melanoma activity against mouse B16 cells xenografted in Kunming mouse model assessed as reduction in tumor volume at 40 mg/kg, IG measured after 19 days; type: functional, organism-based; details: time 19.0 day
[38] = system: B16; experiment: Anti-melanoma activity against mouse B16 cells xenografted in Kunming mouse model assessed as inhibition of tumor weight at 40 mg/kg, IG measured every two days for 27 days relative to control; type: functional; set-up: scale not given: the % may be the effect or the level left; details: time 27 day

## CC(C)[C@H](NC(=O)CN)C(=O)O[C@H]1CC[C@@]2(C)C(=CC[C@@H]3[C@@H]2CC[C@]2(C)C(c4cccnc4)=CC[C@@H]32)C1
[1]
  Activity: inactive
[2]
  Activity: Active
[3]
  Tmax: 8 h
[4]
  Activity: Active
[5]
  Activity: Active
[6]
  Activity: 0.23 g
[7]
  Activity: Active
[8]
  Cmax: 55.8 ng/mL
[9]
  Activity: Active
[10]
  Activity: Toxic
[11]
  Activity: Active
[12]
  Activity: Active
[13]
  Activity: Active
[14]
  survival at 648 h: 100%
[15]
  survival at 648 h: 100%
[16]
  Activity: 99.06%
[17]
  Activity: Active
[18]
  Activity: Active
[19]
  Activity: Non-Toxic
[20]
  Activity: Non-Toxic
[21]
  IC50: 9.7 µM
[22]
  Activity: 98.12%
[23]
  inhibition at 9.7 µM: ~65%
[24]
  Activity: Active
[25]
  Activity: Active
[26]
  Activity: 13.6%
[27]
  Activity: Active
[28]
  Activity: 100%
[29]
  Activity: 0.1 g
[30]
  Activity: Active
[31]
  Activity: Active
[32]
  Activity: 1.7 g
[33]
  Activity: Active
[34]
  Activity: Active
[35]
  inhibition at 9.7 µM: 66%
[36]
  inhibition at 9.7 µM: 70%
[37]
  Activity: Active
[38]
  Activity: 83.96%
